Test system: K98450-129-R-PDC complex spheroid growth, percent test/control
Experiment: Anticancer human tumor K98450-129-R-PDC patient-derived colon adenocarcinoma cell line growth inhibition [RAS]
Settings: for IC50: curve of first compound; for viability, T/C: stronger effect = lower value
In short: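 Agents were tested in combination matrices in half-log decrements from a top concentration at or near clinical Cmax (10 microM if undetermined). Targets were multi-cell spheroids of tumour lines plus HUVEC and MSC stromal cells.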

[1] = second compound 0.00316 µM, first compound 0.0316 µM
[2] = second compound 0.00316 µM, first compound 0.1 µM
[3] = second compound 0.00316 µM, first compound 0.316 µM
[4] = second compound 0.00316 µM, first compound 1 µM
[5] = second compound 0.01 µM, first compound 0.0316 µM
[6] = second compound 0.01 µM, first compound 0.1 µM
[7] = second compound 0.01 µM, first compound 0.316 µM
[8] = second compound 0.01 µM, first compound 1 µM
[9] = second compound 0.0316 µM, first compound 0.0316 µM
[10] = second compound 0.0316 µM, first compound 0.1 µM
[11] = second compound 0.0316 µM, first compound 0.316 µM
[12] = second compound 0.0316 µM, first compound 1 µM
[13] = second compound 0.1 µM, first compound 0.0316 µM
[14] = second compound 0.1 µM, first compound 0.1 µM
[15] = second compound 0.1 µM, first compound 0.316 µM
[16] = second compound 0.1 µM, first compound 1 µM
[17] = second compound 0.316 µM, first compound 0.0316 µM
[18] = second compound 0.316 µM, first compound 0.1 µM
[19] = second compound 0.316 µM, first compound 0.316 µM
[20] = second compound 0.316 µM, first compound 1 µM
[21] = second compound 1 µM, first compound 0.0316 µM
[22] = second compound 1 µM, first compound 0.1 µM
[23] = second compound 1 µM, first compound 0.316 µM
[24] = second compound 1 µM, first compound 1 µM
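Further: spheroids exposed to agents for seven days before the viability readout.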
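Wherever viability, T/C is given: luminescence used as a proxy for viable cell amount.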

`C=CC(=O)Nc1cc(Nc2nccc(-c3cn(C)c4ccccc34)n2)c(OC)cc1N(C)CCN(C)C` + C=CC(=O)N1CCN(c2nc(OCC3CCCN3C)nc3c(F)c(-c4nc(N)cc(C)c4C(F)(F)F)c(Cl)cc23)C(C)C1 gave an IC50 (second compound 0.00316 µM) of 194 nM, an IC50 (second compound 0.01 µM) of 151 nM and an IC50 (second compound 0.0316 µM) of 54.3 nM. It also gave an IC50 (second compound 0.1 µM) of 10.5 nM, an IC50 (second compound 0.316 µM) of less than 3.16 nM and an IC50 (second compound 1 µM) of less than 3.16 nM. For the same compound, the viability, T/C (second compound 0.00316 µM, first compound 0.00316 µM) was 93.5%, the viability, T/C (second compound 0.00316 µM, first compound 0.01 µM) was 85.9% and the viability, T/C [1] was 91%. For the same compound, the viability, T/C [2] was 83.5%, the viability, T/C [3] was 25.5% and the viability, T/C [4] was 9.6%. It also gave a viability, T/C (second compound 0.01 µM, first compound 0.00316 µM) of 94.4%, a viability, T/C (second compound 0.01 µM, first compound 0.01 µM) of 78% and a viability, T/C [5] of 85.2%. For the same compound, the viability, T/C [6] was 71.3%, the viability, T/C [7] was 11.4% and the viability, T/C [8] was 8.81%. The viability, T/C (second compound 0.0316 µM, first compound 0.00316 µM) was 70.3%, the viability, T/C (second compound 0.0316 µM, first compound 0.01 µM) was 70.4% and the viability, T/C [9] was 63.6%. The viability, T/C [10] was 34.3%, the viability, T/C [11] was 9.39% and the viability, T/C [12] was 8.93%. The viability, T/C (second compound 0.1 µM, first compound 0.00316 µM) was 56.3%, the viability, T/C (second compound 0.1 µM, first compound 0.01 µM) was 47.9% and the viability, T/C [13] was 38.7%. For the same compound, the viability, T/C [14] was 17.6%, the viability, T/C [15] was 8.42% and the viability, T/C [16] was 8.07%. It also gave a viability, T/C (second compound 0.316 µM, first compound 0.00316 µM) of 39%, a viability, T/C (second compound 0.316 µM, first compound 0.01 µM) of 34.4% and a viability, T/C [17] of 29.3%. It also gave a viability, T/C [18] of 13.7%, a viability, T/C [19] of 10.3% and a viability, T/C [20] of 9.33%. The viability, T/C (second compound 1 µM, first compound 0.00316 µM) was 30.4%, the viability, T/C (second compound 1 µM, first compound 0.01 µM) was 27.1% and the viability, T/C [21] was 22.6%. It also gave a viability, T/C [22] of 13.8%, a viability, T/C [23] of 10.9% and a viability, T/C [24] of 9.84%.

For `CC(C)NCC(C(=O)N1CCN(c2ncnc3c2C(C)CC3O)CC1)c1ccc(Cl)cc1` (centres undefined) + C=CC(=O)N1CCN(c2nc(OCC3CCCN3C)nc3c(F)c(-c4nc(N)cc(C)c4C(F)(F)F)c(Cl)cc23)C(C)C1, the IC50 (second compound 0.00316 µM) was greater than 10000 nM, the IC50 (second compound 0.01 µM) was greater than 10000 nM and the IC50 (second compound 0.0316 µM) was greater than 10000 nM. For the same compound, the IC50 (second compound 0.1 µM) was greater than 10000 nM, the IC50 (second compound 0.316 µM) was less than 31.6 nM and the IC50 (second compound 1 µM) was less than 31.6 nM. The viability, T/C [1] was 94.4%, the viability, T/C [2] was 97.7% and the viability, T/C [3] was 94.8%. The viability, T/C [4] was 93.2%, the viability, T/C (second compound 0.00316 µM, first compound 3.16 µM) was 91.4% and the viability, T/C (second compound 0.00316 µM, first compound 10 µM) was 91.2%. It also gave a viability, T/C [5] of 89.3%, a viability, T/C [6] of 81.3% and a viability, T/C [7] of 85.1%. The viability, T/C [8] was 84.6%, the viability, T/C (second compound 0.01 µM, first compound 3.16 µM) was 83.8% and the viability, T/C (second compound 0.01 µM, first compound 10 µM) was 85.3%. The viability, T/C [9] was 70%, the viability, T/C [10] was 63.7% and the viability, T/C [11] was 65.9%. The viability, T/C [12] was 67.3%, the viability, T/C (second compound 0.0316 µM, first compound 3.16 µM) was 75% and the viability, T/C (second compound 0.0316 µM, first compound 10 µM) was 75.5%. It also gave a viability, T/C [13] of 53.1%, a viability, T/C [14] of 52.5% and a viability, T/C [15] of 53.7%. It also gave a viability, T/C [16] of 57%, a viability, T/C (second compound 0.1 µM, first compound 3.16 µM) of 54.8% and a viability, T/C (second compound 0.1 µM, first compound 10 µM) of 49.6%. For the same compound, the viability, T/C [17] was 38.3%, the viability, T/C [18] was 42.1% and the viability, T/C [19] was 41%. The viability, T/C [20] was 43.7%, the viability, T/C (second compound 0.316 µM, first compound 3.16 µM) was 42.6% and the viability, T/C (second compound 0.316 µM, first compound 10 µM) was 36.4%. For the same compound, the viability, T/C [21] was 31.4%, the viability, T/C [22] was 32.7% and the viability, T/C [23] was 35.9%. For the same compound, the viability, T/C [24] was 32.1%, the viability, T/C (second compound 1 µM, first compound 3.16 µM) was 32.7% and the viability, T/C (second compound 1 µM, first compound 10 µM) was 29%.
